Laboratory results as given in ChEMBL document CHEMBL1201861, “Genomics of Drug Sensitity in Cancer screening data, Wellcome Trust Sanger Institute”.

Key:
Assay in all cases: cells
[1] = test system: COLO-824; type: functional, cell-based, Homo sapiens; details: Homo sapiens, COLO-824
Description: SANGER: Inhibition of human COLO-824 cell growth in a cell viability assay.

[2] = test system: COR-L88; type: functional, cell-based, Homo sapiens; details: Homo sapiens, COR-L88;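 further: growth inhibition of COR-L88 cells, read out with a cell viability assay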
Description: SANGER: Inhibition of human COR-L88 cell growth in a cell viability assay.

[3] = test system: CTV-1; type: functional, cell-based, Homo sapiens; details: Homo sapiens, CTV-1;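 further: growth inhibition of the cell line, read out with a cell viability assay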
Description: SANGER: Inhibition of human CTV-1 cell growth in a cell viability assay.

[4] = test system: Calu-6; type: functional, cell-based, Homo sapiens; details: Homo sapiens, Calu-6;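 further: growth of human Calu-6 cells, read out by a cell viability assay, IC50 marking inhibition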
Description: SANGER: Inhibition of human Calu-6 cell growth in a cell viability assay.

[5] = test system: D-247MG; type: functional, cell-based; details: Homo sapiens
Description: SANGER: Inhibition of human D-247MG cell growth in a cell viability assay.

[6] = test system: D283 Med; type: functional, cell-based, Homo sapiens; details: Homo sapiens, D283 Med
Description: SANGER: Inhibition of human D-283MED cell growth in a cell viability assay.

[7] = test system: D-502MG; type: functional, cell-based, Homo sapiens; details: Homo sapiens, D-502MG
Description: SANGER: Inhibition of human D-502MG cell growth in a cell viability assay.

[8] = test system: EKVX; type: functional, cell-based, Homo sapiens; details: Homo sapiens, EKVX;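 further: growth inhibition of human EKVX cells, read out with a cell viability assay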
Description: SANGER: Inhibition of human EKVX cell growth in a cell viability assay.

[9] = test system: ETK-1; type: functional, cell-based, Homo sapiens; details: Homo sapiens, ETK-1;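 further: growth inhibition of human ETK-1 cells, read out with a cell viability assay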
Description: SANGER: Inhibition of human ETK-1 cell growth in a cell viability assay.

[10] = test system: EW-11; type: functional, cell-based, Homo sapiens; details: Homo sapiens, EW-11;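 further: growth inhibition of human EW-11 cells, measured with a cell viability assay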
Description: SANGER: Inhibition of human EW-11 cell growth in a cell viability assay.

[11] = test system: EW-18; type: functional, cell-based, Homo sapiens; details: Homo sapiens, EW-18; read-out: IC50;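 further: growth inhibition of EW-18 cells, read out by a cell viability assay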
Description: SANGER: Inhibition of human EW-18 cell growth in a cell viability assay.

[12] = test system: GR-ST; type: functional, cell-based, Homo sapiens; details: Homo sapiens, GR-ST
Description: SANGER: Inhibition of human GR-ST cell growth in a cell viability assay.

[13] = test system: HCE-T; type: functional, cell-based, Homo sapiens; details: Homo sapiens, HCE-T;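 further: cell viability assay read-out, reporting inhibition of HCE-T cell growth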
Description: SANGER: Inhibition of human HCE-T cell growth in a cell viability assay.

[14] = test system: IA-LM; type: functional, cell-based; details: Homo sapiens;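 further: cell viability assay measuring growth inhibition of human IA-LM cells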
Description: SANGER: Inhibition of human IA-LM cell growth in a cell viability assay.

[15] = test system: KARPAS-45; type: functional, cell-based, Homo sapiens; details: Homo sapiens, KARPAS-45;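 further: inhibition of cell line growth, read out through a viability assay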
Description: SANGER: Inhibition of human KARPAS-45 cell growth in a cell viability assay.

[16] = test system: KM12; type: functional, cell-based, Homo sapiens; details: Homo sapiens, KM12;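 further: KM12 cell growth inhibition, read out with a cell viability assay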
Description: SANGER: Inhibition of human KM12 cell growth in a cell viability assay.

[17] = test system: KNS-81-FD; type: functional, cell-based, Homo sapiens; details: Homo sapiens, KNS-81-FD;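 further: growth inhibition of KNS-81-FD cells, read out with a cell viability assay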
Description: SANGER: Inhibition of human KNS-81-FD cell growth in a cell viability assay.

[18] = test system: KY821; type: functional, cell-based, Homo sapiens; details: Homo sapiens, KY821;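 further: growth inhibition of human KY821 cells, read out by a cell viability assay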
Description: SANGER: Inhibition of human KY821 cell growth in a cell viability assay.

[19] = test system: LB1047-RCC; type: functional, cell-based, Homo sapiens; details: Homo sapiens, LB1047-RCC;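 further: inhibition of cell growth, determined with a cell viability assay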
Description: SANGER: Inhibition of human LB1047-RCC cell growth in a cell viability assay.

[20] = test system: LB831-BLC; type: functional, cell-based, Homo sapiens; details: Homo sapiens, LB831-BLC;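 further: growth inhibition of LB831-BLC cells, read out with a cell viability assay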
Description: SANGER: Inhibition of human LB831-BLC cell growth in a cell viability assay.

[21] = test system: LS-1034; type: functional, cell-based, Homo sapiens; details: Homo sapiens, LS-1034
Description: SANGER: Inhibition of human LS-1034 cell growth in a cell viability assay.

[22] = test system: LS-411N; type: functional, cell-based, Homo sapiens; details: Homo sapiens, LS-411N
[23] = test system: MFM-223; type: functional, cell-based, Homo sapiens; details: Homo sapiens, MFM-223
Description: SANGER: Inhibition of human MFM-223 cell growth in a cell viability assay.

[24] = test system: MHH-PREB-1; type: functional, cell-based, Homo sapiens; details: Homo sapiens, MHH-PREB-1;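 further: cell viability assay measuring inhibition of proliferation of human MHH-PREB-1 cells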
Description: SANGER: Inhibition of human MHH-PREB-1 cell growth in a cell viability assay.

[25] = test system: MLMA; type: functional, cell-based, Homo sapiens; details: Homo sapiens, MLMA;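 further: growth inhibition of MLMA cells (human), determined through a cell viability readout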
Description: SANGER: Inhibition of human MLMA cell growth in a cell viability assay.

[26] = test system: MPP-89; type: functional, cell-based, Homo sapiens; details: Homo sapiens, MPP-89;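 further: growth inhibition of human MPP-89 cells, read out with a cell viability assay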
Description: SANGER: Inhibition of human MPP-89 cell growth in a cell viability assay.

[27] = test system: MS-1; type: functional, cell-based, Homo sapiens; details: Homo sapiens, MS-1;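 further: growth inhibition of MS-1 cells, read out by cell viability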
Description: SANGER: Inhibition of human MS-1 cell growth in a cell viability assay.

[28] = test system: NCI-H1304; type: functional, cell-based, Homo sapiens; details: Homo sapiens, NCI-H1304;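 further: growth inhibition of the cancer cell line, measured in a cell viability assay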
Description: SANGER: Inhibition of human NCI-H1304 cell growth in a cell viability assay.

[29] = test system: NCI-H1770; type: functional, cell-based, Homo sapiens; details: Homo sapiens, NCI-H1770;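 further: growth inhibition of NCI-H1770 cells determined with a viability readout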
Description: SANGER: Inhibition of human NCI-H1770 cell growth in a cell viability assay.

[30] = test system: NCI-H446; type: functional, cell-based, Homo sapiens; details: Homo sapiens, NCI-H446;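 further: growth inhibition of NCI-H446 cells determined by a cell viability assay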
Description: SANGER: Inhibition of human NCI-H446 cell growth in a cell viability assay.

[31] = test system: NCI-H526; type: functional, cell-based, Homo sapiens; details: Homo sapiens, NCI-H526;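 further: growth inhibition of the human NCI-H526 cell line, measured by a cell viability assay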
Description: SANGER: Inhibition of human NCI-H526 cell growth in a cell viability assay.

[32] = test system: P30-OHK; type: functional, cell-based, Homo sapiens; details: Homo sapiens, P30-OHK;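 further: growth inhibition of the P30-OHK cell line, read out with a cell viability assay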
Description: SANGER: Inhibition of human P30-OHK cell growth in a cell viability assay.

[33] = test system: RERF-LC-MS; type: functional, cell-based; details: Homo sapiens;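 further: growth inhibition of human RERF-LC-MS cells, read out by a cell viability assay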
Description: SANGER: Inhibition of human RERF-LC-MS cell growth in a cell viability assay.

[34] = test system: RXF 393; type: functional, cell-based, Homo sapiens; details: Homo sapiens, RXF 393;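 further: growth inhibition of human RXF 393 cells, read out with a cell viability assay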
Description: SANGER: Inhibition of human RXF393 cell growth in a cell viability assay.

[35] = test system: SF-268; type: functional, cell-based, Homo sapiens; details: Homo sapiens, SF-268;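 further: growth inhibition of SF-268 cells determined with a cell viability assay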
Description: SANGER: Inhibition of human SF268 cell growth in a cell viability assay.

[36] = test system: SJRH30; type: functional, cell-based; details: Homo sapiens;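 further: growth inhibition of human SJRH30 cells, read out with a cell viability assay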
Description: SANGER: Inhibition of human SJRH30 cell growth in a cell viability assay.

[37] = test system: SK-N-DZ; type: functional, cell-based, Homo sapiens; details: Homo sapiens, SK-N-DZ; read-out: IC50;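 further: growth inhibition of the cancer cell line, read out through a viability assay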
Description: SANGER: Inhibition of human SK-N-DZ cell growth in a cell viability assay.

[38] = test system: SNB-75; type: functional, cell-based, Homo sapiens; details: Homo sapiens, SNB-75;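 further: cell viability assay measuring growth inhibition of human SNB-75 cells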
Description: SANGER: Inhibition of human SNB75 cell growth in a cell viability assay.

[39] = test system: A101D; type: functional, cell-based, Homo sapiens; details: Homo sapiens, A101D;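 further: growth inhibition of the cell line, measured with a viability assay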
Description: SANGER: Inhibition of human A101D cell growth in a cell viability assay.

[40] = test system: A4-Fuk; type: functional, cell-based, Homo sapiens; details: Homo sapiens, A4-Fuk;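 further: growth inhibition of A4-Fuk cells, read out by a cell viability assay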
Description: SANGER: Inhibition of human A4-Fuk cell growth in a cell viability assay.

[41] = test system: ACN; type: functional, cell-based, Homo sapiens; details: Homo sapiens, ACN;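 further: growth inhibition of the human ACN cell line, read out via cell viability testing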
Description: SANGER: Inhibition of human ACN cell growth in a cell viability assay.

[42] = test system: AM-38; type: functional, cell-based, Homo sapiens; details: Homo sapiens, AM-38;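 further: growth inhibition of AM-38 cells of human origin, read out by a cell viability assay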
Description: SANGER: Inhibition of human AM-38 cell growth in a cell viability assay.

[43] = test system: BB49-HNC; type: functional, cell-based, Homo sapiens; details: Homo sapiens, BB49-HNC;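 further: cell viability assay read-out, reported as inhibition of BB49-HNC cell growth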
Description: SANGER: Inhibition of human BB49-HNC cell growth in a cell viability assay.

[44] = test system: Becker; type: functional, cell-based, Homo sapiens; details: Homo sapiens, Becker;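 further: growth inhibition of Becker cells, read out with a cell viability assay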
Description: SANGER: Inhibition of human Becker cell growth in a cell viability assay.

[45] = test system: TE-5; type: functional, cell-based, Homo sapiens; details: Homo sapiens, TE-5;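 further: inhibition of cell growth, read out by a cell viability assay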
Description: SANGER: Inhibition of human TE-5 cell growth in a cell viability assay.

[46] = test system: TE-6; type: functional, cell-based, Homo sapiens; details: Homo sapiens, TE-6;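 further: growth inhibition of TE-6 cells, read out with a cell viability assay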
Description: SANGER: Inhibition of human TE-6 cell growth in a cell viability assay.

[47] = test system: TGBC1TKB; type: functional, cell-based, Homo sapiens; details: Homo sapiens, TGBC1TKB;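 further: growth inhibition of TGBC1TKB cells, read out by a cell viability assay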
Description: SANGER: Inhibition of human TGBC1TKB cell growth in a cell viability assay.

[48] = test system: UACC-62; type: functional, cell-based; details: Homo sapiens;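 further: growth inhibition of human UACC-62 cells, read out by a cell viability assay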
Description: SANGER: Inhibition of human UACC-62 cell growth in a cell viability assay.

[49] = test system: VA-ES-BJ; type: functional, cell-based, Homo sapiens; details: Homo sapiens, VA-ES-BJ;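 further: growth inhibition of the VA-ES-BJ cell line, read out by a cell viability assay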
Description: SANGER: Inhibition of human VA-ES-BJ cell growth in a cell viability assay.

[50] = test system: COLO-668; type: functional, cell-based, Homo sapiens; details: Homo sapiens, COLO-668
Description: SANGER: Inhibition of human COLO-668 cell growth in a cell viability assay.

COC(=O)[C@H](CCSC)NC(=O)c1ccc(NC[C@@H](N)CS)cc1-c1ccccc1
IC50 [1]: > 1020 nM
IC50 [2]: > 1020 nM
IC50 [3]: > 1020 nM
IC50 [4]: > 1020 nM
IC50 [5]: > 1020 nM
IC50 [6]: > 1020 nM
IC50 [7]: > 1020 nM
IC50 [8]: > 1020 nM
IC50 [9]: > 1020 nM
IC50 [10]: > 1020 nM
IC50 [11]: > 1020 nM
IC50 [12]: > 1020 nM
IC50 [13]: > 1020 nM
IC50 [14]: 955 nM
IC50 [15]: > 1020 nM
IC50 [16]: > 1020 nM
IC50 [17]: > 1020 nM
IC50 [18]: > 1020 nM
IC50 [19]: > 1020 nM
IC50 [20]: > 1020 nM
IC50 [21]: > 1020 nM
IC50 [22]: > 1020 nM
IC50 [23]: > 1020 nM
IC50 [24]: > 1020 nM
IC50 [25]: > 1020 nM
IC50 [26]: > 1020 nM
IC50 [27]: > 1020 nM
IC50 [28]: > 1020 nM
IC50 [29]: > 1020 nM
IC50 [30]: > 1020 nM
IC50 [31]: > 1020 nM
IC50 [32]: > 1020 nM
IC50 [33]: > 1020 nM
IC50 [34]: > 1020 nM
IC50 [35]: > 1020 nM
IC50 [36]: > 1020 nM
IC50 [37]: > 1020 nM
IC50 [38]: > 1020 nM
IC50 [39]: > 1020 nM
IC50 [40]: > 1020 nM
IC50 [41]: > 1020 nM
IC50 [42]: > 1020 nM
IC50 [43]: > 1020 nM
IC50 [44]: > 1020 nM
IC50 [45]: > 1020 nM
IC50 [46]: > 1020 nM
IC50 [47]: > 1020 nM
IC50 [48]: > 1020 nM
IC50 [49]: > 1020 nM
IC50 [50]: > 1020 nM

CN(NC(=O)CC(=O)NN(C)C(=S)c1ccccc1)C(=S)c1ccccc1 [ELESCLOMOL]
IC50 [1]: 71.8 nM
IC50 [2]: > 200 nM
IC50 [3]: > 200 nM
IC50 [4]: > 200 nM
IC50 [5]: 24.7 nM
IC50 [6]: 40.9 nM
IC50 [7]: 25.8 nM
IC50 [8]: 39.5 nM
IC50 [9]: 35 nM
IC50 [10]: 4.9 nM
IC50 [11]: > 200 nM
IC50 [12]: > 200 nM
IC50 [13]: 4.45 nM
IC50 [14]: 84.4 nM
IC50 [15]: > 200 nM
IC50 [16]: > 200 nM
IC50 [17]: 17.5 nM
IC50 [18]: > 200 nM
IC50 [19]: 10.7 nM
IC50 [20]: 27.7 nM
IC50 [21]: > 200 nM
IC50 [22]: 102 nM
IC50 [23]: 45.2 nM
IC50 [24]: 11.5 nM
IC50 [25]: 13.6 nM
IC50 [26]: 9.13 nM
IC50 [27]: 166 nM
IC50 [28]: > 200 nM
IC50 [29]: > 200 nM
IC50 [30]: 90.1 nM
IC50 [31]: > 200 nM
IC50 [32]: > 200 nM
IC50 [33]: 8.58 nM
IC50 [34]: 13.4 nM
IC50 [35]: 12.9 nM
IC50 [36]: 100 nM
IC50 [37]: 189 nM
IC50 [38]: 105 nM
IC50 [39]: 11.4 nM
IC50 [40]: 108 nM
IC50 [41]: 11.7 nM
IC50 [42]: 169 nM
IC50 [43]: 126 nM
IC50 [44]: 22.3 nM
IC50 [45]: 15 nM
IC50 [46]: 139 nM
IC50 [47]: 33.3 nM
IC50 [48]: 23.2 nM
IC50 [49]: 7.64 nM
IC50 [50]: > 200 nM
